Experiments:
Assay in all cases: relative viability (nuclei count vs DMSO), 5 days (fraction); higher = more cells survive
[1] = test system: NCI-H727
How it was run: (§1)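 Relative viability equals treated-well nuclei counts divided by vehicle-well nuclei counts. Counts came from 4× images of lung cancer cell lines grown in 1536-well plates for 5 days after pin-tool dosing on the day after seeding. Dosing used one drug alone or a fixed anchor-drug dose plus five library-drug doses (not always all listed) in √10 steps, and values are medians of duplicate plates.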

[2] = test system: NCI-H1666
How it was run: as §1

[3] = test system: NCI-H2342
How it was run: as §1

[4] = test system: BEN
How it was run: as §1

[5] = test system: NCI-H650
How it was run: as §1

[6] = test system: NCI-H647
How it was run: as §1

[7] = test system: LXF-289
How it was run: as §1

[8] = test system: HCC-827
How it was run: as §1

[9] = test system: NCI-H441
How it was run: as §1

[10] = test system: NCI-H1915
How it was run: as §1

[11] = test system: NCI-H2228
How it was run: as §1

[12] = test system: SW 1573
How it was run: as §1

[13] = test system: EPLC-272H
How it was run: as §1

[14] = test system: NCI-H2347
How it was run: as §1

[15] = test system: NCI-H2170
How it was run: as §1

[16] = test system: NCI-H1437
How it was run: as §1

[17] = test system: NCI-H522
How it was run: as §1

[18] = test system: NCI-H23
How it was run: as §1

[19] = test system: NCI-H358
How it was run: as §1

[20] = test system: LU99A
How it was run: as §1

[21] = test system: NCI-H322M
How it was run: as §1

[22] = test system: SK-MES-1
How it was run: as §1

[23] = test system: HOP-62
How it was run: as §1

`Oc1nc(-c2ccc(C(F)(F)F)cc2)nc2c1CSCC2` [XAV939] + Cc1nc(Nc2ncc(C(=O)Nc3c(C)cccc3Cl)s2)cc(N2CCN(CCO)CC2)n1 [Dasatinib] (partner 0.075 µM) was tested, and the relative viability ([1]; first compound 0.08 µM) was 0.332, the relative viability ([1]; first compound 0.253 µM) was 0.452 and the relative viability ([1]; first compound 0.8 µM) was 0.442. For the same molecule, the relative viability ([1]; first compound 2.53 µM) was 0.405, the relative viability ([2]; first compound 0.08 µM) was 0.921 and the relative viability ([2]; first compound 0.253 µM) was 0.801. It also gave a relative viability ([2]; first compound 0.8 µM) of 0.761, a relative viability ([2]; first compound 2.53 µM) of 0.744 and a relative viability ([3]; first compound 0.08 µM) of 0.309. The relative viability ([3]; first compound 0.253 µM) was 0.285, the relative viability ([3]; first compound 0.8 µM) was 0.326 and the relative viability ([3]; first compound 2.53 µM) was 0.254. For the same molecule, the relative viability ([4]; first compound 0.08 µM) was 0.294, the relative viability ([4]; first compound 0.253 µM) was 0.299 and the relative viability ([4]; first compound 0.8 µM) was 0.32. The relative viability ([4]; first compound 2.53 µM) was 0.287, the relative viability ([5]; first compound 0.08 µM) was 0.497 and the relative viability ([5]; first compound 0.253 µM) was 0.501. For the same molecule, the relative viability ([5]; first compound 0.8 µM) was 0.444, the relative viability ([5]; first compound 2.53 µM) was 0.414 and the relative viability ([6]; first compound 0.08 µM) was 0.164. It also gave a relative viability ([6]; first compound 0.253 µM) of 0.207, a relative viability ([6]; first compound 0.8 µM) of 0.201 and a relative viability ([6]; first compound 2.53 µM) of 0.147. It also gave a relative viability ([7]; first compound 0.08 µM) of 0.179, a relative viability ([7]; first compound 0.253 µM) of 0.167 and a relative viability ([7]; first compound 0.8 µM) of 0.178. For the same molecule, the relative viability ([7]; first compound 2.53 µM) was 0.139, the relative viability ([8]; first compound 0.08 µM) was 0.349 and the relative viability ([8]; first compound 0.253 µM) was 0.297. The relative viability ([8]; first compound 0.8 µM) was 0.393, the relative viability ([8]; first compound 2.53 µM) was 0.437 and the relative viability ([9]; first compound 0.08 µM) was 0.602. The relative viability ([9]; first compound 0.253 µM) was 0.66, the relative viability ([9]; first compound 0.8 µM) was 0.779 and the relative viability ([9]; first compound 2.53 µM) was 0.536. The relative viability ([10]; first compound 0.08 µM) was 0.353, the relative viability ([10]; first compound 0.253 µM) was 0.214 and the relative viability ([10]; first compound 0.8 µM) was 0.311. The relative viability ([10]; first compound 2.53 µM) was 0.298, the relative viability ([11]; first compound 0.08 µM) was 0.496 and the relative viability ([11]; first compound 0.253 µM) was 0.426. The relative viability ([11]; first compound 0.8 µM) was 0.473, the relative viability ([11]; first compound 2.53 µM) was 0.382 and the relative viability ([12]; first compound 0.08 µM) was 0.605. For the same molecule, the relative viability ([12]; first compound 0.253 µM) was 0.506, the relative viability ([12]; first compound 0.8 µM) was 0.43 and the relative viability ([12]; first compound 2.53 µM) was 0.241. It also gave a relative viability ([13]; first compound 0.08 µM) of 0.385, a relative viability ([13]; first compound 0.253 µM) of 0.403 and a relative viability ([13]; first compound 0.8 µM) of 0.355. The relative viability ([13]; first compound 2.53 µM) was 0.247, the relative viability ([14]; first compound 0.08 µM) was 0.258 and the relative viability ([14]; first compound 2.53 µM) was 0.335. It also gave a relative viability ([15]; first compound 0.08 µM) of 0.505, a relative viability ([15]; first compound 0.253 µM) of 0.496 and a relative viability ([15]; first compound 0.8 µM) of 0.46. The relative viability ([15]; first compound 2.53 µM) was 0.394, the relative viability ([16]; first compound 0.08 µM) was 0.353 and the relative viability ([16]; first compound 0.253 µM) was 0.488. It also gave a relative viability ([16]; first compound 0.8 µM) of 0.416, a relative viability ([16]; first compound 2.53 µM) of 0.654 and a relative viability ([17]; first compound 0.08 µM) of 0.982. The relative viability ([17]; first compound 0.253 µM) was 0.812, the relative viability ([17]; first compound 0.8 µM) was 0.465 and the relative viability ([17]; first compound 2.53 µM) was 0.779. For the same molecule, the relative viability ([18]; first compound 0.08 µM) was 0.872, the relative viability ([18]; first compound 0.253 µM) was 0.7 and the relative viability ([18]; first compound 0.8 µM) was 0.895. The relative viability ([18]; first compound 2.53 µM) was 0.722, the relative viability ([19]; first compound 0.08 µM) was 0.16 and the relative viability ([19]; first compound 0.253 µM) was 0.166. The relative viability ([19]; first compound 0.8 µM) was 0.175, the relative viability ([19]; first compound 2.53 µM) was 0.172 and the relative viability ([20]; first compound 0.08 µM) was 0.503. The relative viability ([20]; first compound 0.253 µM) was 0.56, the relative viability ([20]; first compound 0.8 µM) was 0.591 and the relative viability ([20]; first compound 2.53 µM) was 0.457. It also gave a relative viability ([21]; first compound 0.08 µM) of 0.241, a relative viability ([21]; first compound 0.253 µM) of 0.254 and a relative viability ([21]; first compound 0.8 µM) of 0.227. It also gave a relative viability ([21]; first compound 2.53 µM) of 0.22, a relative viability ([22]; first compound 0.08 µM) of 0.339 and a relative viability ([22]; first compound 0.253 µM) of 0.344. It also gave a relative viability ([22]; first compound 0.8 µM) of 0.392, a relative viability ([22]; first compound 2.53 µM) of 0.284 and a relative viability ([23]; first compound 0.08 µM) of 0.738. It also gave a relative viability ([23]; first compound 0.253 µM) of 0.659, a relative viability ([23]; first compound 0.8 µM) of 0.621 and a relative viability ([23]; first compound 2.53 µM) of 0.396.

— the supplement of paper PMC10307832
